Source: publication PMC10302753, “Natural-Product-Inspired Microwave-Assisted Synthesis of Novel Spirooxindoles as Antileishmanial Agents: Synthesis, Stereochemical Assignment, Bioevaluation, SAR, and Molecular Docking Studies” (Molecules, 2023)
Values after ≈ are worked out from the molar mass of the structure shown.

Key:
[1] = tested on: promastigotes and the amastigotes forms of Leishmania (L.) species; set-up: method as in PMID 24433962, doi:10.1016/j.molstruc.2019.03.032, PMID 34311084, PMID 36444862; conditions: Figure 2; cited from earlier work
LdTopIB = tested on: LdTopIB; set-up: method as in PMID 24433962, doi:10.1016/j.molstruc.2019.03.032, PMID 34311084, PMID 36444862; conditions: Figure 2; cited from earlier work

Row | Structure (SMILES) | IC50 [1] [µM] | melting point [°C] | EC50 [1] [µg/mL] | IC50 (LdTopIB) [µM]
1 | O=C(c1ccc(F)cc1)C1C(c2ccc(Cl)cc2Cl)C2CSCN2C12C(=O)Nc1ccccc12 (centres unmarked) [compound 17] | 39.8 ± 0.43 | 103 to 105 |  | 
2 | Cc1ccc(C(CC(=O)c2ccccc2)C2C(=O)Nc3ccccc32)cc1 (centres unmarked) [compound 16] |  | 112 to 114 | 16.2 (≈ 45.6 µM) | 
3 | COC(=O)C1CC2CCCN2C12C(=O)N(Cc1ccccc1)c1ccccc12 (centres unmarked) [compound 15] |  | 138 to 140 |  | 3.29
4 | O=C1NC(=O)C2(CC(c3ccccc3)N(Cc3ccccc3)C(c3ccccc3)C2)N1c1ccccc1 (centres unmarked) [compound 19] | 0.89 | 142 to 144 |  | 
